Our source for the Ki values is ChEMBL document CHEMBL1134476, “Pharmacological and behavioral analysis of the effects of some bivalent ligand-based monoamine reuptake inhibitors” (J Med Chem, 2001).

The Ki is the equilibrium dissociation constant of an inhibitor or competing ligand from its target. Low readings indicate higher affinity, high ones lower affinity.

Format in all cases: subcellular, Brain
Test [1] deals with T1, Sodium-dependent dopamine transporter (Rattus norvegicus, UniProt P23977). Description: Displacement of [3H]mazindol binding to dopamine transporter (DAT) in rat synaptosomes.
T1 sequence (P23977 whole entry): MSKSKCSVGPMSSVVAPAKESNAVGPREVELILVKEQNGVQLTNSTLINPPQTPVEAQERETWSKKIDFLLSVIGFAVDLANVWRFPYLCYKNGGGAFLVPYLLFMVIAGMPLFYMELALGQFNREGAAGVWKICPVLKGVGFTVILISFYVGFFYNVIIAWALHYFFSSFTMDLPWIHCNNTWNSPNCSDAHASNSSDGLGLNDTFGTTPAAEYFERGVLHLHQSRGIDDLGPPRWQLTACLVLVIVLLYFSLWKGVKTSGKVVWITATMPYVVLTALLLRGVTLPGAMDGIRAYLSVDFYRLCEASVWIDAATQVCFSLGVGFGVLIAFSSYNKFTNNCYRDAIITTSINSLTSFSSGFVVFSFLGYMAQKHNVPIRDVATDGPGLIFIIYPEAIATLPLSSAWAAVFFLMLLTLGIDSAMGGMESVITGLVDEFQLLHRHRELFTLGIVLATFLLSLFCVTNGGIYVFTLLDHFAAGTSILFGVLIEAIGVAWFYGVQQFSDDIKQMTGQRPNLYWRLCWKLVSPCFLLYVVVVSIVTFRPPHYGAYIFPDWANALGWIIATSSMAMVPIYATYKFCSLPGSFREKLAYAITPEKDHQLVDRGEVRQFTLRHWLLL
For test [2], the target named is T1, Sodium-dependent dopamine transporter. The test can be described thus: Inhibition of high affinity DA uptake into rat synaptosomes using [3H]DA.
Test [3] concerns the target T2, Norepinephrine transporter (Rattus norvegicus, UniProt Q9WTR4). The test can be described thus: Ability to inhibit high affinity uptake of norepinephrine transporter into the nerve endings of rat synaptosomes using [3H]NE radioligand.
The target of test [4] is Sodium-dependent serotonin transporter (Rattus norvegicus, UniProt P31652). Description: Inhibition of high affinity serotonin uptake into rat synaptosomes using [3H]5-HT.
Sequence of Sodium-dependent serotonin transporter (P31652 whole entry): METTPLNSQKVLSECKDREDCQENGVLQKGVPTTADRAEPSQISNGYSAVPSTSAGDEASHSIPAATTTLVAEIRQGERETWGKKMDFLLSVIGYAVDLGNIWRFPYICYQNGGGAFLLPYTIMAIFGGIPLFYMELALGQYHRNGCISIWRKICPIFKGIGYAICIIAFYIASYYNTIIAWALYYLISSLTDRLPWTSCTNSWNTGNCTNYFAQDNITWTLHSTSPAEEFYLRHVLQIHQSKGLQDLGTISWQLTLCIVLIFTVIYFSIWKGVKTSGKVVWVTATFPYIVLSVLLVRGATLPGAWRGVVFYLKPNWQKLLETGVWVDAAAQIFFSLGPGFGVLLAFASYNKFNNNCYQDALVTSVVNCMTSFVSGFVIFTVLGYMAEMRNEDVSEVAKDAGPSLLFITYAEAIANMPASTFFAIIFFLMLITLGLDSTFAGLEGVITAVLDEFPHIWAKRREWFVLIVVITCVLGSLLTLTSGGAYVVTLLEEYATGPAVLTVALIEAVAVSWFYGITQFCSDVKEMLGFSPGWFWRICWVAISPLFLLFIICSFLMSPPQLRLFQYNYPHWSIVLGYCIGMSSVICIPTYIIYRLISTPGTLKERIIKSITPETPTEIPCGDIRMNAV
Test [5] has as its target T2, Norepinephrine transporter. Description: Ability to inhibit high affinity uptake of norepinephrine transporter into the nerve endings of rat synaptosomes using [3H]NE as a radioligand.
For test [6], the target named is T1, Sodium-dependent dopamine transporter. The test can be described thus: Ability to inhibit high affinity uptake of DA into the nerve endings of rat synaptosomes using [3H]DA as a radioligand.

Structures are written as SMILES. Where only a bound is given, the exact number is not on record here.

T2 sequence (Q9WTR4 whole entry): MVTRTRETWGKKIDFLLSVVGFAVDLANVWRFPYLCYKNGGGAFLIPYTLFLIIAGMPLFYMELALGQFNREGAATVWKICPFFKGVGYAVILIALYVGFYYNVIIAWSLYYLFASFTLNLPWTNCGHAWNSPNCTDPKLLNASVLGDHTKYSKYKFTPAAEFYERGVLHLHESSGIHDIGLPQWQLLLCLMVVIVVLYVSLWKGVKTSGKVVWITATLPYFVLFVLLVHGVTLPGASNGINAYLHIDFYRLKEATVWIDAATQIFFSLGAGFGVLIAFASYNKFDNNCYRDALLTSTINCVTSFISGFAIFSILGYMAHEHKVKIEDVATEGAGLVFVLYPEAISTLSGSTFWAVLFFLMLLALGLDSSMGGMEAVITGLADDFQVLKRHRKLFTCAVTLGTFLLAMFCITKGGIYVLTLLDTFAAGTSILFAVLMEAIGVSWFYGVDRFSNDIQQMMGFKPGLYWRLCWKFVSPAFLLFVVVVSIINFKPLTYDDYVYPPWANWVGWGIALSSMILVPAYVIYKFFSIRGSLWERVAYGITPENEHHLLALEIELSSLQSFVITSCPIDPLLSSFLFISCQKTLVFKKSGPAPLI

Consider `COC(=O)[C@H]1CN(C)CC[C@@H]1c1ccc(Cl)cc1`, for which the Ki in test [1] came to 248 nM; in test [2], 228 nM; in test [3], 90 nM; in test [4], 5880 nM.
Take `CN1CC[C@H](c2ccc(Cl)cc2)[C@@H](C(=O)NCCCCCCCNC(=O)[C@H]2CN(C)CC[C@@H]2c2ccc(Cl)cc2)C1`: the Ki in test [1] was 348 nM; in test [2], 190 nM; in test [5], 394 nM; in test [4] it was 40 nM.
As for `CN1CC[C@H](c2ccc(Cl)cc2)[C@@H](C(=O)NCCCCCNC(=O)c2ccccc2)C1`, the Ki was found to be 409 nM in test [1], 465 nM in test [2], 1200 nM in test [5] and 494 nM in test [4].
In the case of `CN1CC[C@H](c2ccc(Cl)cc2)[C@@H](C(=O)NCCCCCCCCNC(=O)[C@H]2CN(C)CC[C@@H]2c2ccc(Cl)cc2)C1`, the inhibitory constant (Ki) in test [1] is 294 nM; in test [2] it was 341 nM; in test [5] it was 1980 nM; in test [4], 56 nM.
Consider `CN1CC[C@H](c2ccc(Cl)cc2)[C@@H](C(=O)NCCCNC(=O)[C@H]2CN(C)CC[C@@H]2c2ccc(Cl)cc2)C1`, for which the Ki in test [1] was 8.4 nM; in test [2] it was 14 nM; in test [5], 146 nM; in test [4] it was 566 nM.
For the molecule `CN1CC[C@H](c2ccc(Cl)cc2)[C@@H](C(=O)OCCCOC(=O)[C@H]2CN(C)CC[C@@H]2c2ccc(Cl)cc2)C1`, the Ki is 68 nM in test [1], 108 nM in test [2], 340 nM in test [5] and 730 nM in test [4].
Taken in the same sequence, the figures for `CN1CC[C@H](c2ccc(Cl)cc2)[C@@H](C(=O)NCCCCCNC(=O)[C@H]2CN(C)CC[C@@H]2c2ccc(Cl)cc2)C1` were 103 nM, 39 nM, 158 nM and 7 nM.
`CN1CC[C@@H](c2ccc(Cl)cc2)[C@H](C(=O)NCCCCCNC(=O)[C@@H]2CN(C)CC[C@H]2c2ccc(Cl)cc2)C1`: the Ki in test [1] was 1440 nM; in test [5] it was 393 nM.
For the molecule `CN1CC[C@H](c2ccc(Cl)cc2)[C@@H](C(=O)NCCCCCCNC(=O)[C@H]2CN(C)CC[C@@H]2c2ccc(Cl)cc2)C1`, the inhibitory constant (Ki) was 402 nM in test [1], 75 nM in test [2], 579 nM in test [5] and 60 nM in test [4].
`CNC(=O)[C@@H]1CN(C)CC[C@H]1c1ccc(Cl)cc1`: the Ki in test [1] was more than 39000 nM; in test [2], more than 70000 nM; in test [3], 3110 nM; in test [4], more than 10000 nM.
`CNC(=O)[C@H]1CN(C)CC[C@@H]1c1ccc(Cl)cc1`: the Ki in test [1] was more than 12000 nM; in test [2] it was more than 9000 nM; in test [5], 4380 nM; in test [4], more than 53000 nM.
On to `CN1CC[C@@H](c2ccc(Cl)cc2)[C@H](C(=O)NCCCNC(=O)[C@@H]2CN(C)CC[C@H]2c2ccc(Cl)cc2)C1`, for which the Ki in test [1] was more than 6500 nM; in test [2], 5090 nM; in test [5], 373 nM; in test [4] it was 342 nM.
For `CN1CC[C@H](c2ccc(Cl)cc2)[C@@H](C(=O)NCCCCNC(=O)[C@H]2CN(C)CC[C@@H]2c2ccc(Cl)cc2)C1`, the Ki in test [1] stood at 81 nM; in test [2], 33 nM; in test [5] it was 104 nM; in test [4], 534 nM.
In the same order, the values of `CN1CC[C@H](c2ccc(Cl)cc2)[C@@H](C(=O)OCCCCCOC(=O)[C@H]2CN(C)CC[C@@H]2c2ccc(Cl)cc2)C1` are 64 nM, 56 nM, 182 nM and 25 nM.
With `CN1CC[C@H](c2ccc(Cl)cc2)[C@@H](C(=O)OCCCCCCCCOC(=O)[C@H]2CN(C)CC[C@@H]2c2ccc(Cl)cc2)C1`, the Ki in test [1] was found to be 920 nM; in test [2], 142 nM; in test [5], 658 nM; in test [4] it was 175 nM.
For `CN1CC[C@H](c2ccc(Cl)cc2)[C@@H](C(=O)NCCCCCNC(=O)c2ccc(Cl)cc2)C1`, the Ki is 194 nM in test [1], 256 nM in test [2], 551 nM in test [5] and 159 nM in test [4].
As to `CN1CC[C@H](c2ccc(Cl)cc2)[C@@H](C(=O)NCCCCCNC(=O)/C=C/c2ccc(Cl)cc2)C1`, the Ki worked out at 246 nM in test [1], 253 nM in test [2], 1080 nM in test [5] and 133 nM in test [4].
For `COC(=O)[C@@H]1CN(C)CC[C@H]1c1ccc(Cl)cc1`, the Ki in test [1] came out at 1770 nM; in test [2], 2890 nM; in test [3], 242 nM; in test [4], 3600 nM.
For the molecule `CN1CC[C@@H](c2ccc(Cl)cc2)[C@H](C(=O)NCCCCCCCCNC(=O)[C@@H]2CN(C)CC[C@H]2c2ccc(Cl)cc2)C1`, the Ki in test [6] came out at 3180 nM; in test [5], 1040 nM; in test [4] it was 2.1 nM.
